Test results taken from patent US6624202B2, “Inhibitors of copper-containing amine oxidases” (priority 2000, dated 2003).
Counter-ions that a name gives are not always drawn. Like-named read-outs stand apart in the source and are kept apart here.

Key:
[1] = molecular target: T1, Recombinant human VAP-1 SSAO (Homo sapiens, UniProt Q16853); experiment: In vitro inhibition of VAP-1 SSAO activity (coupled colourimetric method); format: biochemical; conditions: for IC50: 1 mM benzylamine, 1 h at 37° C.
T1 sequence (Q16853 1-763): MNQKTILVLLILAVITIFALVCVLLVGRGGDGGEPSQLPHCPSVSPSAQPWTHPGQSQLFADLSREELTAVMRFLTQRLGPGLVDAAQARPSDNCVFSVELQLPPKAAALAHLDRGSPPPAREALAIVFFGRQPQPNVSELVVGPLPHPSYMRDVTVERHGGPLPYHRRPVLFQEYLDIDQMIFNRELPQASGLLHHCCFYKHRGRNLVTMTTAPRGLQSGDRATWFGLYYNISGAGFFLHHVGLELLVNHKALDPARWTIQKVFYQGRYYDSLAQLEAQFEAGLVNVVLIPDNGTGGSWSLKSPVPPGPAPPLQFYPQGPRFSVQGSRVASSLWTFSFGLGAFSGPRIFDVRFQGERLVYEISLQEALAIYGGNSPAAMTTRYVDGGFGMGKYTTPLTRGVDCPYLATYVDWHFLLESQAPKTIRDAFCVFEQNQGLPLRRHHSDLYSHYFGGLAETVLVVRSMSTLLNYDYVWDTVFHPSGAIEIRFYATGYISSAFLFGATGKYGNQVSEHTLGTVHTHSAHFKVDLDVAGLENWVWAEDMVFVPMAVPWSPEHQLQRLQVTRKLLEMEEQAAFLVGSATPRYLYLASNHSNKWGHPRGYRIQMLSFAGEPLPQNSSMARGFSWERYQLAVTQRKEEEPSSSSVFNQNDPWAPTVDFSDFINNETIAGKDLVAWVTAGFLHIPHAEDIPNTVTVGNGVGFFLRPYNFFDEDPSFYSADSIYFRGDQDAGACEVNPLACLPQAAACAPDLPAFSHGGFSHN
Description: VAP-1 SSAO activity was measured using the coupled colourimetric method essentially as described for monoamine oxidase and related enzymes (Holt, A., et al., Anal. Biochem. 244:384-392 (1997)). Recombinant human VAP-1 SSAO expressed in Chinese Hamster Ovary (CHO) cells was used as a source of VAP-1 SSAO for activity measurements. […] These cells and their culture have previously been described (Smith, D. J., et al., J. Exp. Med. 188:17-27 (1998)). A cell lysate was prepared by suspending approximately 3.6×10^8 cells in 25 ml lysis buffer (150 mM NaCl, 10 mM Tris-Base pH 7.2, 1.5 mM MgCl2, 1% NP40) and incubating at 4° C. overnight on a rotating table. The lysate was clarified by centrifugation at 18000 g for 5 min at room temperature and the supernatant used directly in the assay. The VAP-1 SSAO assay was performed in 96 well microtitre plates as follows. To each well was added a predetermined amount of inhibitor if required. […] Controls lacked inhibitor. The inhibitor was in a total volume of 20 μl in water. The following reagents were then added. 0.2 M potassium phosphate buffer pH 7.6 to a total reaction volume of 200 μl, 45 μl of freshly made chromogenic solution containing 1 mM 2,4-dichlorophenol, 500 μM 4-aminoantipyrine and 4 U/ml horseradish peroxidase and an amount of CHO cell lysate containing VAP-1 SSAO that caused a change of 0.6 A490 per h. […] The plates were incubated for 30 min at 37° C. and the background absorbance measured at 490 nm using a Wallac Victor II multilabel counter. To initiate the enzyme reaction 20 μl 10 mM benzylamine (final concentration=1 mM) was added and the plate incubated for 1 h at 37° C. The increase in absorbance, reflecting VAP-1 SSAO activity, was measured at 490 nm. Inhibition was presented as percent inhibition compared to control after correcting for background absorbance and IC50 values calculated using GraphPad Prism.

[2] = system: Total rat MAO; experiment: Total rat MAO activity (rat liver mitochondrial preparation, colourimetric); format: biochemical; conditions: rat liver mitochondria; 0.5 mM tyramine; 1 h at 37° C.; read-out: Total MAO inhibitory activity IC50
Description: Rat MAO was prepared from rat liver by rinsing the 1 g liver sample several times in 14 ml KCl-EDTA-solution to remove all blood. Then 1 g liver sample was homogenised in 4 ml ice-cold potassium phosphate buffer (0.1 M, pH 7.4) with an Ultra-Turrax homogeniser (setting 11 000 rpm, 4×10 s). After centrifugation at 500 g for 10 min at 4° C. the supernatant was carefully withdrawn and was centrifuged at 12 300 g for 15 min at 4° C. The supernatant was discharged and sedimented mitochondria were resuspended in 4 ml fresh phosphate buffer and centrifuged as previously. The mitochondria were suspended in 4 ml phosphate buffer and homogenized with an Ultra-Turrax homogeniser (setting 11 000 rpm, 2×10 s). Mitochondrial preparate was aliquoted and stored at −70° C. Total MAO activity was measured in a similar way as for VAP-1 SSAO except that 2,4-dichlorophenol was replaced by 1 mM vanillic acid. To each well was added a predetermined amount of inhibitor if required. The amount of inhibitor varied in each assay but was generally at a final concentration of between 10 nM and 800 μM. Controls lacked inhibitor. The inhibitor was in a total volume of 20 μl in water. The following reagents were then added. 0.2 M potassium phosphate buffer pH 7.6 for a total reaction volume of 300 μl, 50 μl of fleshly made chromogenic solution (as above) and 50 μl of MAO preparation. The plates were incubated for 30 min at 37° C. and the background absorbance measured at 490 nm using a Wallac Victor II multilabel counter. To initiate the enzyme reaction 20 μl of 5 mM tyramine (final concentration 0.5 mM) was added and the plate incubated for 1 h at 37° C. The increase in absorbance, reflecting MAO activity, was measured at […]. Inhibition was presented as percent inhibition compared to control after correcting for background absorbance and IC50 values calculated using GraphPad Prism. Clorgyline and pargyline (inhibitors of MAO-A and -B respectively) at 0.5 μM were added to some wells as positive controls for MAO inhibition.

[3] = lysate of CHO cells expressing recombinant human VAP-1 SSAO, read-out: VAP-1 SSAO inhibitory activity IC50
[4] = ratio of total rat MAO IC50 to human VAP-1 SSAO IC50
[5] = VAP-1 SSAO inhibitory activity IC50, lysate of CHO cells expressing recombinant human VAP-1 SSAO

Row | Compound | IC50 [1, 3] [nM] | Selectivity for VAP-1 SSAO over MAO [1, 4] | IC50 [2] [nM] | IC50 [1, 5] [nM] | Selectivity for VAP-1 SSAO over MAO [1]
1 | 2-(1-methylhydrazino)-1-phenylethanol hydrogenmaleate [Compound 6] | 65 | 137 | 8900 | – | –
2 | C[C@@H]([C@H](O)c1ccccc1)N(C)N (racemic) [Compound 10] | – | 120 | 36000 | 300 | –
3 | CC(C(O)c1ccccc1)N(C)N (racemic) [Compound 11] | – | 94 | 16000 | 170 | –
4 | C[C@@H]([C@H](O)c1ccccc1)N(C)N (racemic) [Compound 12] | – | 138 | – | 290 | –
5 | CCN(N)[C@@H](C)[C@H](O)c1ccccc1 (racemic) [Compound 13] | 1520 | 16 | – | – | –
6 | CCCN(N)C(C)C(O)c1ccccc1 (racemic) [Compound 14] | 129000 | >6 | – | – | –
7 | C[C@@H]([C@H](O)c1ccccc1)N(N)CC1CC1 (racemic) [Compound 15] | 1380 | 7 | – | – | –
8 | CC(C(O)c1ccccc1)N(N)Cc1ccccc1 (racemic) [Compound 16] | 4000 | 62 | – | – | –
9 | C[C@@H]([C@H](O)c1ccccc1)N(N)Cc1ccccc1 (racemic) [Compound 17] | 34000 | 6 | – | – | –
10 | COc1ccc(CN(N)C(C)C(O)c2ccccc2)cc1 (racemic) [Compound 18] | 2600 | 9 | – | – | –
11 | CN(N)C(C)(C)C(O)c1ccccc1 (racemic) [Compound 20] | 520 | 98 | – | – | –
12 | CC[C@@H]([C@H](O)c1ccccc1)N(C)N (racemic) [Compound 21] | 260 | 158 | – | – | –
13 | CCC[C@@H](NN)[C@@H](O)c1ccccc1 (racemic) [Compound 22] | 1200 | 9 | – | – | –
14 | CCC[C@@H]([C@H](O)c1ccccc1)N(C)N (racemic) [Compound 23] | 260 | 108 | – | – | –
15 | CC(C)CN(N)CC(O)c1ccccc1 (racemic) [Compound 24] | 350 | 32 | – | – | –
16 | CN(N)CC(O)c1ccccc1Cl (racemic) [Compound 29] | 270 | 85 | – | – | –
17 | CN(N)CC(O)c1ccc(Cl)cc1 (racemic) [Compound 30] | 310 | – | 21000 | – | 68
18 | COc1cccc(C(O)CNN)c1 (racemic) [Compound 33] | 52 | 175 | 9100 | – | –

Row | Compound | IC50 [1, 3] [nM] | Selectivity for VAP-1 SSAO over MAO [1, 4] | IC50 [2] [nM] | IC50 [1, 5] [nM] | Selectivity for VAP-1 SSAO over MAO [1]
19 | COc1cccc(C(O)CN(C)N)c1 (racemic) [Compound 34] | 280 | – | 44000 | – | 157
20 | COc1ccc(C(O)CNN)cc1 (racemic) [Compound 35] | 29 | 207 | – | – | –
21 | COc1ccc(C(O)CNN)cc1 (racemic) [Compound 36] | 17 | 294 | – | – | –
22 | COc1ccc(C(CN(C)N)OC)cc1 (racemic) [Compound 37] | 420 | 105 | – | – | –
23 | NN(Cc1ccccc1)C(CO)Cc1ccccc1 (racemic) [Compound 38] | > 50000 | ≈10 | – | – | –
24 | NN(Cc1ccccc1)C1CCCCC1O (racemic) [Compound 41] | 21900 | 5 | – | – | –
25 | NN(Cc1ccccc1)[C@@H]1CCCC[C@H]1O (racemic) [Compound 42] | 3700 | 29 | 106000 | – | –
26 | CN(N)[C@@H]1CCCC[C@]1(O)c1ccccc1 (racemic) [Compound 43] | 520 | 19 | – | – | –
27 | COc1cc2c(cc1OC)C(CCO)N(N)CC2 (racemic) [Compound 45] | 8100 | 6 | – | – | –
28 | NN1Cc2ccccc2CC1CO (racemic) [Compound 46] | > 10000 | <61 | – | – | –
29 | COc1cc2c(cc1OC)CN(N)C(CO)C2 (racemic) [Compound 47] | > 10000 | <150 | – | – | –
30 | C[C@@H]([C@H](O)c1ccccc1)N(C)N (relative stereo) [Compound 2, (1R*,2S*)-2-(1-Methylhydrazino)-1-phenyl-1-propanol hydrochloride] | – | 111 | – | 350 | –
31 | C[C@H]([C@@H](O)c1ccccc1)[N+](C)(C)N (relative stereo) [Compound 4, (1R*,2S*)-1-(2-hydroxy-1-methyl-2-phenylethyl)-1,1-dimethylhydrazinium iodide] | > 50000 | ≈10 | – | – | –
32 | CN(N)[C@H](c1ccccc1)C(O)c1ccccc1 (stereo in doubt) [Compound 5, (1R*,2S*)-2-(1-methylhydrazino)-1,2-diphenylethanol hydrogemnaleate] | 410 | 132 | – | – | –
33 | C[C@@H]([C@H](O)c1ccccc1)N(C)N [Compound 1, (1R,2S)-2-(1-Methylhydrazino)-1-phenyl-1-propanol hydrogenmaleate] | – | 141 | – | 220 | –
34 | COc1cccc(C(CN(C)N)OC)c1 (stereo not shown) [Compound 7, 1-[2-methoxy-2-(m-methoxyphenyl)ethyl]-1-methylhydrazine Hydrogenfumarate] | 410 | 107 | – | – | –
35 | COc1cc2c(cc1OC)C(CO)N(N)CC2 (stereo not shown) [Compound 8, 2-Amino-6,7-dimethoxy-1,2,3,4-tetrahydroisoquinoline-1-methanol hydrochloride] | > 10000 | <8 | – | – | –
36 | COc1ccc(C(O)CN(C)N)cc1 (stereo not shown) [Compound 9, 2-(1-methylhydrazino)-1-(p-methoxyphenyl)ethanol hydrogenfumarate] | 310 | 116 | – | – | –
